# Results reported in ChEMBL document CHEMBL3885881, “DrugMatrix”.
# Species: Rattus norvegicus
# Format: toxicity, organism-based, Sprague-Dawley
# Conditions: in vivo, ip, 24 h, route intraperitoneal, time 1 day, vehicle .1 % RSA/SALINE
# [1] = 0 mg/kg, vehicle control, tissue Blood, dose level Control
# [2] = 0 mg/kg, vehicle control, tissue Plasma, dose level Control
# [3] = 0.01 mg/kg, tissue Blood, dose level High
# [4] = 0.01 mg/kg, tissue Plasma, dose level High
# Description: DrugMatrix - Regimen: Single
sequence,measurement,setting,value
"INTERLEUKIN 1 BETA, RAT",ABSOLUTE EOSINOPHIL,[1],109.33 CELLS/uL
same,ABSOLUTE LYMPHOCYTE,[1],13180.67 CELLS/uL
same,ABSOLUTE MONOCYTE,[1],354 CELLS/uL
same,ABSOLUTE SEGMENTED NEUTROPHIL,[1],1756 CELLS/uL
same,BASOPHIL,[1],0%
same,EOSINOPHIL,[1],0.67%
same,ERYTHROCYTE COUNT,[1],5.38 x10E6/uL
same,HEMOGLOBIN,[1],12.57 G/DL
same,LEUKOCYTE COUNT,[1],15.4 x10E3/uL
same,LYMPHOCYTE,[1],85%
same,MEAN CORPUSCULAR HEMOGLOBIN,[1],23.37 pg
same,MEAN CORPUSCULAR HEMOGLOBIN CONCENTRATION,[1],38.3 G/DL
same,NEUTROPHIL,[1],12%
same,NUCLEATED RED BLOOD CELLS,[1],0 /100WBC
same,PLATELET COUNT,[1],832.33 x10E3/uL
same,ALANINE AMINOTRANSFERASE,[2],37.33 u/L
same,ALBUMIN,[2],4 G/DL
same,ALKALINE PHOSPHATASE,[2],344.67 u/L
same,ASPARTATE AMINOTRANSFERASE,[2],69.33 u/L
same,BLOOD UREA NITROGEN,[2],13.67 mg/dL
same,CARBON DIOXIDE,[2],28.33 mmol/L
same,CHLORIDE,[2],99.67 MEQ/L
same,CHOLESTEROL,[2],73.67 mg/dL
same,CREATINE PHOSPHOKINASE,[2],270 u/L
same,CREATININE,[2],0.19 mg/dL
same,GLUCOSE,[2],176.33 mg/dL
same,LACTATE DEHYDROGENASE,[2],160 u/L
same,PHOSPHORUS,[2],13.47 mg/dL
same,POTASSIUM,[2],6.77 MEQ/L
same,TOTAL BILIRUBIN,[2],0.13 mg/dL
same,TOTAL PROTEIN,[2],6.07 G/DL
same,URIC ACID,[2],1.87 mg/dL
same,ABSOLUTE EOSINOPHIL,[3],0 CELLS/uL
same,ABSOLUTE LYMPHOCYTE,[3],13348 CELLS/uL
same,ABSOLUTE MONOCYTE,[3],227.67 CELLS/uL
same,ABSOLUTE SEGMENTED NEUTROPHIL,[3],3524.33 CELLS/uL
same,BASOPHIL,[3],0%
same,EOSINOPHIL,[3],0%
same,ERYTHROCYTE COUNT,[3],5.11 x10E6/uL
same,HEMATOCRIT,[3],31.33%
same,HEMOGLOBIN,[3],12.13 G/DL
same,LEUKOCYTE COUNT,[3],17.1 x10E3/uL
same,LYMPHOCYTE,[3],78%
same,MEAN CORPUSCULAR HEMOGLOBIN CONCENTRATION,[3],38.73 G/DL
same,MEAN CORPUSCULAR VOLUME,[3],61.37 fL
same,NEUTROPHIL,[3],20.67%
same,NUCLEATED RED BLOOD CELLS,[3],0.33 /100WBC
same,PLATELET COUNT,[3],933.33 x10E3/uL
same,ALANINE AMINOTRANSFERASE,[4],30.33 u/L
same,ALKALINE PHOSPHATASE,[4],386.33 u/L
same,ASPARTATE AMINOTRANSFERASE,[4],62.67 u/L
same,CARBON DIOXIDE,[4],25.33 mmol/L
same,CHOLESTEROL,[4],66.67 mg/dL
same,CREATINE PHOSPHOKINASE,[4],237 u/L
same,CREATININE,[4],0.18 mg/dL
same,GLUCOSE,[4],176.33 mg/dL
same,LACTATE DEHYDROGENASE,[4],101 u/L
same,PHOSPHORUS,[4],12.13 mg/dL
same,POTASSIUM,[4],6.6 MEQ/L
same,TOTAL BILIRUBIN,[4],0.13 mg/dL
same,TOTAL PROTEIN,[4],6.07 G/DL
